How the values were obtained:
WT KRAS = WT KRAS (Homo sapiens, UniProt P01116); test: KRAS WT Probe Displacement Assay (TR-FRET, GDP-loaded); type: binding; details: KRAS WT, read-out: KRAS^WT Probe Displacement Assay IC50
From the text: (§1) The synthetic routes of probe 1 and 2, which have been disclosed in PCT/CN2022/070676, are hereby incorporated herein.

KRAS G12D = KRAS G12D (Homo sapiens, UniProt P01116, G12D); test: KRAS G12D Probe Displacement Assay (TR-FRET, GDP-loaded); type: binding; details: KRAS G12D, read-out: KRAS^G12D Probe Displacement Assay IC50
From the text: as §1

KRAS G12D, sequence (P01116 1-188 isoform P01116-2 G12D): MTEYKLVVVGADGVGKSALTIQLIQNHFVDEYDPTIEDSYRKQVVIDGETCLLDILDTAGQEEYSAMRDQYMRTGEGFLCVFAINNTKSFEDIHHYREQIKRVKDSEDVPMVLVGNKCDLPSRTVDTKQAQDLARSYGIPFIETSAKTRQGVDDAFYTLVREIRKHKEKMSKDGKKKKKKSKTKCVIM
WT KRAS, sequence (P01116 1-188 isoform P01116-2): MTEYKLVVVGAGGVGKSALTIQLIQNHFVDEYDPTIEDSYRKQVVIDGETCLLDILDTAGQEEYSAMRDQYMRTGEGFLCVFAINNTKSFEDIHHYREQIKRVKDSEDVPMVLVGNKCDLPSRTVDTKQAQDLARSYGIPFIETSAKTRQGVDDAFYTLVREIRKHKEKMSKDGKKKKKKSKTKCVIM

## CO[C@@H]1CCN(CC2(COc3nc4c5c(nc(-c6cc(N)cc(C)c6C(F)(F)F)c(F)c5n3)OCC[C@@H]3[C@@H]5CC[C@H](CN43)N5)CC2)C[C@@H]1F [Example 184, 3-((6aR,7S,10R)-1-fluoro-13-((1-(((3S,4R)-3-fluoro-4-methoxypiperidin-1-yl)methyl)cyclopropyl)methoxy)-5,6,6a,7,8,9,10,11-octahydro-4-oxa-3,11a,12,14,15-pentaaza-7,10-methanocyclohepta[4,5]cycloocta[1,2,3-de]naphthalen-2-yl)-5-methyl-4-(trifluoromethyl)aniline]
WT KRAS
  IC50: 3 to 1000 nM
KRAS G12D
  IC50: < 0.3 nM

## CO[C@H]1CCN(CC2(COc3nc4c5c(nc(-c6cc(N)cc(C)c6C(F)(F)F)c(F)c5n3)OCC[C@@H]3[C@@H]5CC[C@H](CN43)N5)CC2)C[C@H]1F [Example 185, 3-((6aR,7S,10R)-1-fluoro-13-((1-(((3R,4S)-3-fluoro-4-methoxypiperidin-1-yl)methyl)cyclopropyl)methoxy)-5,6,6a,7,8,9,10,11-octahydro-4-oxa-3,11a,12,14,15-pentaaza-7,10-methanocyclohepta[4,5]cycloocta[1,2,3-de]naphthalen-2-yl)-5-methyl-4-(trifluoromethyl)aniline]
WT KRAS
  IC50: 3 to 1000 nM
KRAS G12D
  IC50: < 0.3 nM

## Cc1cc(N)cc(-c2nc3c4c(nc(OCC5(CN6CCC7(CCOC7)C6)CC5)nc4c2F)N2C[C@H]4CC[C@H](N4)[C@H]2CCO3)c1C(F)(F)F (stereo partly drawn) [Example 188, 3-((6aR,7S,10R)-13-((1-((2-oxa-7-azaspiro[4.4]nonan-7-yl)methyl)cyclopropyl)methoxy)-1-fluoro-5,6,6a,7,8,9,10,11-octahydro-4-oxa-3,11a,12,14,15-pentaaza[7,10]methanocyclohepta[4,5]cycloocta[1,2,3-de]naphthalen-2-yl)-5-methyl-4-(trifluoromethyl)aniline]
WT KRAS
  IC50: < 0.3 nM
KRAS G12D
  IC50: < 0.3 nM

## Cc1cc(N)cc(-c2nc3c4c(nc(OCC5(CN6CCC7(COC7)C6)CC5)nc4c2F)N2C[C@H]4CC[C@H](N4)[C@H]2CCO3)c1C(F)(F)F [Example 189, 3-((6aR,7S,10R)-13-((1-((2-oxa-6-azaspiro[3.4]octan-6-yl)methyl)cyclopropyl)methoxy)-1-fluoro-5,6,6a,7,8,9,10,11-octahydro-4-oxa-3,11a,12,14,15-pentaaza[7,10]methanocyclohepta[4,5]cycloocta[1,2,3-de]naphthalen-2-yl)-5-methyl-4-(trifluoromethyl)aniline]
WT KRAS
  IC50: 3 to 1000 nM
KRAS G12D
  IC50: < 0.3 nM

## Cc1cc(N)cc(-c2nc3c4c(nc(OCC5(CN6CCCC67CCOC7)CC5)nc4c2F)N2C[C@H]4CC[C@H](N4)[C@H]2CCO3)c1C(F)(F)F (stereo partly drawn) [Example 190, 3-((6aR,7S,10R)-13-((1-((7-oxa-1-azaspiro[4.4]nonan-1-yl)methyl)cyclopropyl)methoxy)-1-fluoro-5,6,6a,7,8,9,10,11-octahydro-4-oxa-3,11a,12,14,15-pentaaza[7,10]methanocyclohepta[4,5]cycloocta[1,2,3-de]naphthalen-2-yl)-5-methyl-4-(trifluoromethyl)aniline]
WT KRAS
  IC50: 3 to 1000 nM
KRAS G12D
  IC50: < 0.3 nM

## Cc1cc(N)cc(-c2nc3c4c(nc(OCC5(CN6CCN(C7COC7)CC6)CC5)nc4c2F)N2C[C@H]4CC[C@H](N4)[C@H]2CCO3)c1C(F)(F)F [Example 191, 3-((6aR,7S,10R)-1-fluoro-13-((1-((4-(oxetan-3-yl)piperazin-1-yl)methyl)cyclopropyl)methoxy)-5,6,6a,7,8,9,10,11-octahydro-4-oxa-3,11a,12,14,15-pentaaza-7,10-methanocyclohepta[4,5]cycloocta[1,2,3-de]naphthalen-2-yl)-5-methyl-4-(trifluoromethyl)aniline]
WT KRAS
  IC50: 3 to 1000 nM
KRAS G12D
  IC50: < 0.3 nM

## Cc1cc(N)cc(-c2nc3c4c(nc(OCC5(CN6CCN(C7CC7)CC6)CC5)nc4c2F)N2C[C@H]4CC[C@H](N4)[C@H]2CCO3)c1C(F)(F)F [Example 192, 3-((6aR,7S,10R)-13-((1-((4-cyclopropylpiperazin-1-yl)methyl)cyclopropyl)methoxy)-1-fluoro-5,6,6a,7,8,9,10,11-octahydro-4-oxa-3,11a,12,14,15-pentaaza-7,10-methanocyclohepta[4,5]cycloocta[1,2,3-de]naphthalen-2-yl)-5-methyl-4-(trifluoromethyl)aniline]
WT KRAS
  IC50: 0.3 to 3 nM
KRAS G12D
  IC50: < 0.3 nM

## Cc1cc(N)cc(-c2nc3c4c(nc(OCC5(CN6CCc7cnn(C)c7C6)CC5)nc4c2F)N2C[C@H]4CC[C@H](N4)[C@H]2CCO3)c1C(F)(F)F [Example 193]
WT KRAS
  IC50: 3 to 1000 nM
KRAS G12D
  IC50: < 0.3 nM

## Cc1cc(N)cc(-c2nc3c4c(nc(OC[C@@]5(C)CCCN(C6CCOCC6)C5)nc4c2F)N2C[C@H]4CC[C@H](N4)[C@H]2CCO3)c1C(F)(F)F [Example 195, 3-((6aR,7S,10R)-1-fluoro-13-(((S)-3-methyl-1-(tetrahydro-2H-pyran-4-yl)piperidin-3-yl)methoxy)-5,6,6a,7,8,9,10,11-octahydro-4-oxa-3,11a,12,14,15-pentaaza-7,10-methanocyclohepta[4,5]cycloocta[1,2,3-de]naphthalen-2-yl)-5-methyl-4-(trifluoromethyl)aniline]
WT KRAS
  IC50: 0.3 to 3 nM
KRAS G12D
  IC50: < 0.3 nM

## C[C@]1(COc2nc3c4c(nc(-c5cc(N)cc(Cl)c5C(F)(F)F)c(F)c4n2)OCC[C@@H]2[C@@H]4CC[C@H](CN32)N4)CCCN(C2CCOCC2)C1 [Example 196, 3-chloro-5-((6aR,7S,10R)-1-fluoro-13-(((S)-3-methyl-1-(tetrahydro-2H-pyran-4-yl)piperidin-3-yl)methoxy)-5,6,6a,7,8,9,10,11-octahydro-4-oxa-3,11a,12,14,15-pentaaza-7,10-methanocyclopenta[4,5]cycloocta[1,2,3-de]naphthalen-2-yl)-4-(trifluoromethyl)aniline]
WT KRAS
  IC50: 0.3 to 3 nM
KRAS G12D
  IC50: < 0.3 nM

## Cc1cc(N)cc(-c2nc3c4c(nc(OC[C@@]5(C)CCCN(C6COC6)C5)nc4c2F)N2C[C@H]4CC[C@H](N4)[C@H]2CCO3)c1C(F)(F)F [Example 197, 3-((6aR,7S,10R)-1-fluoro-13-(((S)-3-methyl-1-(oxetan-3-yl)piperidin-3-yl)methoxy)-5,6,6a,7,8,9,10,11-octahydro-4-oxa-3,11a,12,14,15-pentaaza-7,10-methanocyclohepta[4,5]cycloocta[1,2,3-de]naphthalen-2-yl)-5-methyl-4-(trifluoromethyl)aniline]
WT KRAS
  IC50: 3 to 1000 nM
KRAS G12D
  IC50: < 0.3 nM

## Cc1cc(N)cc(-c2nc3c4c(nc(O[C@H]5C[C@@H]6C[C@H]5CN(C)C6)nc4c2F)N2C[C@H]4CC[C@H](N4)[C@H]2CCO3)c1C(F)(F)F [Example 198, 3-((6aR,7S,10R)-1-fluoro-13-(((1S,5S,6S)-3-methyl-3-azabicyclo[3.2.1]octan-6-yl)oxy)-5,6,6a,7,8,9,10,11-octahydro-4-oxa-3,11a,12,14,15-pentaaza-7,10-methanocyclohepta[4,5]cycloocta[1,2,3-de]naphthalen-2-yl)-5-methyl-4-(trifluoromethyl)aniline]
WT KRAS
  IC50: 3 to 1000 nM
KRAS G12D
  IC50: < 0.3 nM

## Cc1cc(N)cc(-c2nc3c4c(nc(OC[C@@]56C[C@@H](F)CN5C[C@@]5(CC5(F)F)C6)nc4c2F)N2C[C@H]4CC[C@H](N4)[C@H]2CCO3)c1C(F)(F)F [Example 199, 3-((6aR,7S,10R)-1-fluoro-13-(((1S,6′R,7a′R)-2,2,6′-trifluorodihydro-1′H,3′H-spiro[cyclopropane-1,2′-pyrrolizin]-7a′(5′H)-yl)methoxy)-5,6,6a,7,8,9,10,11-octahydro-4-oxa-3,11a,12,14,15-pentaaza[7,10]methanocyclohepta[4,5]cycloocta[1,2,3-de]naphthalen-2-yl)-5-methyl-4-(trifluoromethyl)aniline]
WT KRAS
  IC50: 0.3 to 3 nM
KRAS G12D
  IC50: < 0.3 nM

## Cc1cc(N)cc(-c2nc3c4c(nc(OC[C@@]56CCCN5CC(=C(F)F)C6)nc4c2F)N2C[C@H]4CC[C@H](N4)[C@H]2CCO3)c1C(F)(F)F [Example 200, 3-((6aR,7S,10R)-13-(((S)-2-(difluoromethylene)tetrahydro-1H-pyrrolizin-7a(5H)-yl)methoxy)-1-fluoro-5,6,6a,7,8,9,10,11-octahydro-4-oxa-3,11a,12,14,15-pentaaza-7,10-methanocyclohepta[4,5]cycloocta[1,2,3-de]naphthalen-2-yl)-5-methyl-4-(trifluoromethyl)aniline]
WT KRAS
  IC50: 3 to 1000 nM
KRAS G12D
  IC50: < 0.3 nM

## Nc1cc(Cl)c(C(F)(F)F)c(-c2nc3c4c(nc(OC[C@@]56CCCN5CC(=C(F)F)C6)nc4c2F)N2C[C@H]4CC[C@H](N4)[C@H]2CCO3)c1 [Example 201, 3-chloro-5-((6aR,7S,10R)-13-(((S)-2-(difluoromethylene)tetrahydro-1H-pyrrolizin-7a(5H)-yl)methoxy)-1-fluoro-5,6,6a,7,8,9,10,11-octahydro-4-oxa-3,11a,12,14,15-pentaaza-7,10-methanocyclohepta[4,5]cycloocta[1,2,3-de]naphthalen-2-yl)-4-(trifluoromethyl)aniline]
WT KRAS
  IC50: 0.3 to 3 nM
KRAS G12D
  IC50: < 0.3 nM

## CCN1CC(F)CC(C)(COc2nc3c4c(nc(-c5cc(N)cc(C)c5C(F)(F)F)c(F)c4n2)OCC[C@@H]2[C@@H]4CC[C@H](CN32)N4)C1 (stereo partly drawn) [Example 202, 3-((6aR,7S,10R)-13-((1-ethyl-5-fluoro-3-methylpiperidin-3-yl)methoxy)-1-fluoro-5,6,6a,7,8,9,10,11-octahydro-4-oxa-3,11a,12,14,15-pentaaza-7,10-methanocyclohepta[4,5]cycloocta[1,2,3-de]naphthalen-2-yl)-5-methyl-4-(trifluoromethyl)aniline]
WT KRAS
  IC50: 3 to 1000 nM
KRAS G12D
  IC50: < 0.3 nM

## Nc1cc(Cl)c(C(F)(F)F)c(-c2nc3c4c(nc(OC[C@@]56C[C@@H](F)CN5CC5(CC5)C6)nc4c2F)N2C[C@H]4CC[C@H](N4)[C@H]2CCO3)c1 [Example 207, 3-chloro-5-((6aR,7S,10R)-1-fluoro-13-(((6′R,7a′R)-6′-fluorodihydro-1′H,3′H-spiro[cyclopropane-1,2′-pyrrolizin]-7a′(5′H)-yl)methoxy)-5,6,6a,7,8,9,10,11-octahydro-4-oxa-3,11a,12,14,15-pentaaza[7,10]methanocyclohepta[4,5]cycloocta[1,2,3-de]naphthalen-2-yl)-4-(trifluoromethyl)aniline]
WT KRAS
  IC50: 0.3 to 3 nM
KRAS G12D
  IC50: < 0.3 nM
